From US8753820B2, “Protein biomarkers for soft tissue disease diagnosis and as therapeutic targets for oral care intervention” (Colgate-Palmolive Company, priority 2009, dated 2014)

Tests used:
[1] = test system: MMP-9 production of U937 cells; test: MMP-9 ELISA of conditioned media from TNFα-stimulated U937 monocyte cells; format: cell-based, Human; conditions: for MMP-9 production, Average: U937 cells, 24 hours, ELISA of conditioned media
Procedure: U937 cells and RPMI 1640 culture medium were obtained from ATCC. Human MMP-9 ELISA Kit (QUANTIKINE) was obtained from R&D Systems. Fetal Bovine Serum (FBS) was obtained from VWR, and the penicillin-streptomycin solution and Tumor Necrosis Factor α (TNFα) were obtained from Sigma.
Human leukemia U937 monocyte lymphoma cells were cultured in RPMI 1640 medium supplemented with 10% FBS and 1% Penicillin-Streptomycin solution. Cells were incubated at 37° C. in a humidified atmosphere containing 5% CO2 and 95% air. Before treatment, cells were transferred into RPMI containing 1% FBS for overnight. Cells were plated on a 48 well plate. Cell culture medium included either TNFα (250 ng/mL), Triclosan (1 ppm), or both agents together or no agent (control). Cells were incubated after treatment for 24 hours. Conditioned media were collected and store at −80° C. until analysis. Samples of conditioned media were subjected to enzyme-linked immunosorbent assays (ELISA) for MMP-9, according to commercial ELISA protocol (FIG. 1).

[2] = test system: MMP-13 expression in UMR 106-01 cells; test: MMP-13 expression by real time quantitative RT-PCR in PTH stimulated UMR 106-01 cells; format: cell-based, Rat; conditions: 4 hours; for MMP-13 expression in PTH stimulated UMR cells: PTH 10^-8 M
Procedure: Parathyroid hormone (rat PTH 1-34) was purchased from Sigma. UMR 106-01 cells were cultured in Eagle's minimal essential medium (EMEM) supplemented with 25 mM Hepes pH 7.4, 1% nonessential amino acids, 100 units/ml penicillin, 100 μg/ml streptomycin. 5% fetal bovine serum. Real Time Quantitative RT-PCR was conducted according to the following method: UMR 106-01 cells were seeded in 12-well plates and cultured for 2-3 days in cell culture media. When cells were confluent, cell culture media was exchanged with 1% fetal bovine serum for overnight for cell starvation. Cells were pre-incubated with dentifrice for 15 min and then incubated with PTH (10^−8 M) for 4 hours.
Total RNA was isolated from UMR 106-01 cells stimulated with or without PTH with TRIzol reagent. Total RNA (0.1 μg) was reverse-transcribed to cDNA using the Invitrogen SUPERSCRIPT kit according to the manufacturer's instructions. All cDNAs were amplified by adding 2.5 μl of cDNA to the PCR mixture (22.5 μl) containing each primer (0.2 μM) and 12.5 μl of the Platinum SYBR Green qPCR SuperMix UDG (Invitrogen). The reactions were preincubated at 50° C. for 2 minutes to decontaminate dU-containing DNA by UDG, then at 95° C. for 2 minutes to inactivate UDG and activate Taq. The PCR program continued 49 cycles of denaturation at 95° C. for 15 seconds, annealing and elongation of the primers at 60° C. for 30 seconds. Relative quantification of gene expression was determined by using the 2-delta delta CT method where fold changes in gene expression are relative to control samples. All samples were normalized to β-actin.
All results were expressed as means±standard error (S.E.) of triplicate measurements with all experiments being repeated at least three times. Statistical analyses were carried out using the Student's t test.

[3] = PEG 600 present in a weight ratio of 25 triclosan:1 PEG 600, versus absence of polyethylene glycol; cited from earlier work

Molecule: Oc1cc(Cl)ccc1Oc1ccc(Cl)cc1Cl [Triclosan, 2,4,4′-trichloro-2′-hydroxydiphenyl ether]
- MMP-9 level in TNFα stimulated U937 cells ([1]; Triclosan at 1 ppm): significantly reduced
- MMP-9 production, Average ([1]; TNFα 250 ng/mL + Triclosan 1 ppm): 0.155 ng/mL
- MMP-13 expression in PTH stimulated UMR cells ([2]; 1 ppm): significantly reduced
- MMP-13 expression in PTH stimulated UMR cells ([2]; 4 ppm): significantly reduced
- MMP-13 expression in PTH stimulated UMR cells ([2]; 10 ppm): significantly reduced
- factor by which antibacterial activity of triclosan is reduced [3]: 10-20

Molecule: PTH: Parathyroid hormone (rat PTH 1-34) purchased from Sigma, used to stimulate MMP-13 expression (AVSEIQLMHNLGKHLASVERMQWLRKKLQDVHNF; Parathyroid hormone; UniProt P04089 32-65, looked up, fragment)
- MMP-13 expression in UMR cells ([2]; stimulated with PTH 10^-8 M): increase

Molecule: TNFα
- MMP-9 production, Average ([1]; TNFα 250 ng/mL alone): 0.275 ng/mL
- MMP-9 level in U937 cells ([1]; stimulated with TNFα): increase
